The values below come from ChEMBL document CHEMBL1201862, “PubChem BioAssay data set” (2004).

Molecules are shown by their SMILES.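 Five concentrations, 48 hours, 96-well plates. Abbreviation: GI50, concentration required for 50% inhibition of growth.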 The source made the active and inactive calls. Cut-off read from the data, not from the text of the source: active = GI50 up to about 1.1 µM and inactive = higher.

What all share (test): NCI-60 cell line screen, 48 h
The test system of assay [1] is NCI-H226.
Assay [2] relates to HT-29.
Assay [3] deals with PC-3.
Assay [4] deals with EKVX.
Assay [5] has as its system HCT-15.
The subject of assay [6] is SN12C.
The subject of assay [7] is MDA-MB-435.
The test system of assay [8] is TK-10.
For assay [9], the system named is UACC-257.
For assay [10], the system named is SK-MEL-28.
The subject of assay [11] is HOP-92.
For assay [12], the system named is Malme-3M.
The test system of assay [13] is OVCAR-8.
Assay [14] has as its system KM12.
The subject of assay [15] is RPMI-8226.
Assay [16] relates to OVCAR-3.
Assay [17] deals with IGROV-1.
For assay [18], the system named is HCC 2998.
Assay [19] deals with HL-60.
The test system of assay [20] is RXF 393.

With `C[C@]12O[C@@]3(C)O[C@@]3(C)[C@]3(C)O[C@]3(C)[C@@]1(C)O2`, the GI50 is > 100 µM (inactive) in assay [1]; > 100 µM (inactive) in assay [2]; > 100 µM (inactive) in assay [3]; > 100 µM (inactive) in [4]; greater than 100 µM in [5]; > 100 µM (inactive) in assay [6]. For the same compound, the GI50 in assay [7], in assay [8], in assay [9], in assay [10], in assay [11] and in [12] was > 100 µM (inactive) in each case. Further, the GI50 in [13] and in [14] was > 100 µM (inactive) throughout.

Consider `CCCNC(=O)Cn1c(-c2ccccc2)cc2ccccc21`, for which the GI50 in assay [15] is > 100 µM (inactive); in assay [1], > 100 µM (inactive); in assay [2], 93.8 µM (inactive); in [16], 91.8 µM (inactive); in assay [3], 41.1 µM (inactive); in assay [4], 30.6 µM (inactive). Also, the GI50 in [17] was 43.9 µM (inactive); in assay [5], 75 µM; in [6] it was > 100 µM (inactive); in assay [7] it was 77.3 µM (inactive); in assay [8] it was 43.1 µM (inactive); in [18], > 100 µM (inactive). Further, the GI50 in assay [9] is > 100 µM (inactive); in assay [10], 92.3 µM (inactive); in assay [12], 92 µM (inactive); in assay [13] it was > 100 µM (inactive); in assay [19], > 100 µM (inactive); in assay [20] it was 18.5 µM (inactive). In addition, in assay [14], the GI50 was > 100 µM (inactive).

As to `Cc1ccc2nc(-c3nccn3C)cc(C(=O)NC(C)CN(C)C)c2c1` (stereo not drawn), the GI50 in assay [1] is 98.6 µM (inactive); in assay [2], 72.6 µM (inactive); in [3], 25.3 µM (inactive); in assay [4], > 100 µM (inactive); in assay [17], > 100 µM (inactive); in assay [5] it was 55.1 µM. Moreover, the GI50 was > 100 µM (inactive) in assay [6]; > 100 µM (inactive) in assay [7]; > 100 µM (inactive) in assay [8]; > 10 µM (inactive) in assay [18]; > 100 µM (inactive) in assay [9]; > 100 µM (inactive) in [10]. For the same compound, the GI50 in assay [11] was 46.3 µM (inactive); in assay [12], > 100 µM (inactive); in [13] it was > 100 µM (inactive); in assay [19] it was 10.1 µM (inactive); in assay [20] it was > 100 µM (inactive); in [14], > 100 µM (inactive).

For `Cc1cc(N(C)c2ccccc2)nc(N(C)c2ccccc2)n1`, the GI50 in assay [15] was 28.8 µM (inactive); in assay [1], 34.6 µM (inactive); in assay [2], 17.9 µM (inactive); in assay [16], 33 µM (inactive); in assay [3] it was 43.3 µM (inactive); in assay [4] it was 36.1 µM (inactive). Further, the GI50 in assay [17] was 39 µM (inactive); in [5] it was 32.1 µM; in [6], 46.8 µM (inactive); in [7], 42.9 µM (inactive); in [8], 55.7 µM (inactive); in [18], 36.9 µM (inactive). Besides, the GI50 was 25.4 µM (inactive) in [9]; 35.5 µM (inactive) in assay [10]; 26.9 µM (inactive) in assay [12]; 33 µM (inactive) in [13]; 37.8 µM (inactive) in assay [19]; 22 µM (inactive) in assay [20]. In assay [14], the GI50 is 18.1 µM (inactive).

With `C#CCN(C(=O)C(F)(F)F)C(/C=C\C(=O)OC)(C(=O)OCC)C(=O)OCC`, the GI50 in assay [15], in assay [1], in [2], in assay [16], in assay [3] and in assay [4] was > 100 µM (inactive) throughout. Besides, the GI50 in [17] was > 100 µM (inactive); in assay [5], greater than 100 µM; in assay [6], > 100 µM (inactive); in assay [7], > 100 µM (inactive); in assay [8], > 100 µM (inactive); in [18] it was > 100 µM (inactive). In addition, the GI50 in [10], in assay [12], in assay [13], in [19], in assay [20] and in [14] was > 100 µM (inactive) in each case.

For `COc1ccc(N[S+]([O-])c2cccc(C)c2)cc1` (stereo not drawn), the GI50 in assay [15] is 26.2 µM (inactive); in [1], > 100 µM (inactive); in assay [2] it was 92.9 µM (inactive); in assay [16], > 100 µM (inactive); in [3], > 100 µM (inactive); in [4], 12.2 µM (inactive). The GI50 in assay [17] is 28.3 µM (inactive); in [5], 5.21 µM; in assay [6], > 100 µM (inactive); in assay [7] it was 34.9 µM (inactive); in assay [8], > 100 µM (inactive); in assay [18], 3.88 µM (inactive). Besides, the GI50 in assay [9] is > 100 µM (inactive); in assay [10], 33 µM (inactive); in assay [12] it was 75.5 µM (inactive); in assay [13] it was 52.1 µM (inactive); in assay [19], 25.7 µM (inactive); in [20] it was 54.5 µM (inactive). The GI50 in assay [14] is 17.5 µM (inactive).

For the compound `CC1C(c2ccccc2)NC(c2ccccc2)CC1(N)C#N` (stereo not drawn), the GI50 was > 100 µM (inactive) in assay [1]; 63.1 µM (inactive) in assay [2]; > 100 µM (inactive) in [16]; > 100 µM (inactive) in assay [3]; > 100 µM (inactive) in assay [4]; > 100 µM (inactive) in assay [17]. The GI50 in [5] is greater than 100 µM; in assay [6] it was > 100 µM (inactive); in [7], > 100 µM (inactive); in [8], > 100 µM (inactive); in assay [18] it was > 100 µM (inactive); in [9], 48 µM (inactive). For the same compound, the GI50 in assay [10] is > 100 µM (inactive); in assay [11] it was 95.1 µM (inactive); in [13] it was > 100 µM (inactive); in [19], > 100 µM (inactive); in [20] it was > 100 µM (inactive); in assay [14], > 100 µM (inactive).

Turning to `Cn1c(N(CCO)CCO)cnc1[N+](=O)[O-]`, the GI50 in assay [15], in assay [1], in [2], in assay [16], in [3] and in assay [4] was > 100 µM (inactive) throughout. The GI50 is > 100 µM (inactive) in [17]; greater than 100 µM in [5]; > 100 µM (inactive) in assay [7]; > 100 µM (inactive) in [8]; > 100 µM (inactive) in assay [9]; > 100 µM (inactive) in assay [11]. Further, the GI50 in [12], in [13], in assay [19], in assay [20] and in assay [14] was > 100 µM (inactive) in each case.

With `CCC1(CC)C(=O)N(C(=O)c2ccccc2)N(C(=O)c2ccc(Cl)cc2)C1=O`, the GI50 is 20 µM (inactive) in assay [15]; > 75 µM (inactive) in [1]; 58.6 µM (inactive) in assay [2]; > 75 µM (inactive) in [16]; > 75 µM (inactive) in assay [3]; > 75 µM (inactive) in [4]. The GI50 in assay [17] was > 75 µM (inactive); in assay [5], 72.3 µM; in assay [6], > 75 µM (inactive); in assay [7], > 75 µM (inactive); in assay [8], > 75 µM (inactive); in [18], > 75 µM (inactive). Also, the GI50 in assay [9] was > 75 µM (inactive); in assay [10] it was > 75 µM (inactive); in [12], > 75 µM (inactive); in [13], > 75 µM (inactive); in assay [19], 22 µM (inactive); in [20], > 75 µM (inactive). For the same compound, in assay [14], the GI50 was > 75 µM (inactive).

Take `CC(=O)OCC1OC(Nc2ccc3nc(C)n(-c4cccc(C)c4)c(=O)c3c2)C(OC(C)=O)C(OC(C)=O)C1OC(C)=O` (stereo not drawn): the GI50 in assay [15] was 36.4 µM (inactive); in assay [1], > 62.5 µM (inactive); in [2] it was > 62.5 µM (inactive); in assay [16] it was > 62.5 µM (inactive); in assay [3] it was > 62.5 µM (inactive); in assay [4], > 62.5 µM (inactive). Besides, the GI50 in [17] was > 62.5 µM (inactive); in assay [5], greater than 62.5 µM; in assay [6], > 62.5 µM (inactive); in assay [7], > 62.5 µM (inactive); in assay [8], > 62.5 µM (inactive); in assay [18] it was > 62.5 µM (inactive). The GI50 in [9], in assay [10], in assay [12], in [13], in assay [19] and in [20] was > 62.5 µM (inactive) in each case. Also, in assay [14], the GI50 was > 62.5 µM (inactive).

In the case of `O=C(NCP(=O)(O)O)c1cccnc1` [(NICOTINAMIDOMETHYL)PHOSPHONIC ACID], the GI50 in assay [15], in assay [1], in assay [2], in [16], in assay [3] and in [4] was > 100 µM (inactive) each time. Further, the GI50 in [17] was > 100 µM (inactive); in assay [5] it was greater than 100 µM; in [6], > 100 µM (inactive); in assay [7] it was > 100 µM (inactive); in assay [8], > 100 µM (inactive); in assay [9] it was > 100 µM (inactive). For the same compound, the GI50 in assay [10], in assay [11], in assay [13], in assay [19], in [20] and in assay [14] was > 100 µM (inactive) in each case.
